The text below walks through data of ChEMBL document CHEMBL1129353, “Synthesis and biological evaluation of N alpha-(4-amino-4-deoxy-10-methylpteroyl)-DL-4,4-difluoroornithine” (J Med Chem, 1996).

The structures appear in SMILES notation.

Data set [1] concerns CCRF-CEM. The data set can be described thus: cells. Conditions: Homo sapiens, read-out: ED50.
The target in data set [2] is T1, Dihydrofolate reductase (Homo sapiens, UniProt P00374).
T1 sequence (P00374 whole entry): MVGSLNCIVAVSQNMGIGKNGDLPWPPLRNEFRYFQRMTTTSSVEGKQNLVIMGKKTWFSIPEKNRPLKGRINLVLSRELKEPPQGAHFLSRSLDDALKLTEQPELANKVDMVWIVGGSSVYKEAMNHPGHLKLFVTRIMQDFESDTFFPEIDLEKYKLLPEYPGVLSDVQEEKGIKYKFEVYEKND
The data set can be described thus: Inhibitory concentration against dihydrofolate reductase enzyme (DHFR) enzyme isolated from CCRF-CEM human leukemia cells. Type of data set: cell-free.

The target of data set [3] is T2, Folylpolyglutamate synthase, mitochondrial (Homo sapiens, UniProt Q05932).
T2 sequence (Q05932 whole entry): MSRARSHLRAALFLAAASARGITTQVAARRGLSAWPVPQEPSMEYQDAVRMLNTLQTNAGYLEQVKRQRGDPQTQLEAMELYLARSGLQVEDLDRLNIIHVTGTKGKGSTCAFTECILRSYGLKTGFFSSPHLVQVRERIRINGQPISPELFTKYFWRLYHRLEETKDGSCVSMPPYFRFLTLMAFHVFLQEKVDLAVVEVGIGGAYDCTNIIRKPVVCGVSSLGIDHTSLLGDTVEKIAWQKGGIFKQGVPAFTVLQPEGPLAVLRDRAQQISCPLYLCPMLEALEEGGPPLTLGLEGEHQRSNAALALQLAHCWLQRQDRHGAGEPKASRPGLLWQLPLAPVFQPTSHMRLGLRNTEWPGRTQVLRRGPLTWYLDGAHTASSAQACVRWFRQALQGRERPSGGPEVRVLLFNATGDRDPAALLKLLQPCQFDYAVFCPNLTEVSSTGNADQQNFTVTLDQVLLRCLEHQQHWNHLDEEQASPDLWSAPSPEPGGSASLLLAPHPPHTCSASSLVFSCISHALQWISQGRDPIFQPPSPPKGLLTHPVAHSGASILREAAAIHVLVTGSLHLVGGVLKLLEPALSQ
The data set can be described thus: Inhibitory concentration against human Folyl-polyglutamate synthase isolated from CCRF-CEM human leukemia cells. Format: cell-free.

Data set [4] can be described thus: Dissociation constant was evaluated. Type of data set: physicochemical.
The target in data set [5] is T1, Dihydrofolate reductase. The data set can be described thus: Inhibitory concentration against dihydrofolate reductase enzyme (DHFR) enzyme isolated from CCRF-CEM human leukemia cells. value mentioned is from literature.
Data set [6] deals with CCRF-CEM. The data set can be described thus: Inhibitory activity against growth of CCRF-CEM human leukemia cells. value mentioned is from literature. Format: functional. As to conditions: read-out: ED50.
Data set [7] has as its target T2, Folylpolyglutamate synthase, mitochondrial. The data set can be described thus: Inhibitory activity against mammalian Folyl-polyglutamate synthase.

One may read the IC50 as the midpoint of a concentration-inhibition curve. Low readings indicate greater potency in that assay, high ones weaker potency in that assay. In the case of `CN(Cc1cnc2nc(N)nc(N)c2n1)c1ccc(C(=O)NC(CC(F)(F)CN)C(=O)O)cc1` (stereo unspecified), the EC50 in the data set on CCRF-CEM [1] was 93 nM. Further, the results for the IC50 (on Dihydrofolate reductase [2]; in data set [3]) were 1.3 nM and greater than 300000 nM, respectively.

As a reminder, the pKa is the pH at which an ionisable group is half protonated. A higher pKa goes with a group that holds its proton tightly. As to `NCC(F)(F)CC(N)C(=O)O` (stereo unspecified), in data set [4], the pKa was found to be 6.9.

For the compound `CN(Cc1cnc2nc(N)nc(N)c2n1)c1ccc(C(=O)NC(CCCN)C(=O)O)cc1` (stereo unspecified), the EC50 in the data set with CCRF-CEM [1] and in the data set with CCRF-CEM [6] was 740 nM in each case. In addition, the half-inhibitory concentration (IC50) was found to be 2.5 nM on Dihydrofolate reductase [2], 33000 nM in data set [3] and 1 nM on Dihydrofolate reductase [5]. In data set [4], this compound came in with a pKa of 10.8.

The Ki is the equilibrium dissociation constant of an inhibitor or competing ligand from its target. In data set [7], `NCCCC(NC(=O)c1ccc(NCC2CNc3nc(N)[nH]c(=O)c3N2)cc1)C(=O)O` (stereo unspecified) displayed a Ki of 200 nM.
